Test results as given in patent EP0512684B1, “Synergistic herbicidal compositions” (DOWELANCO, priority 1991, dated 1992).

Assays:
Type in all cases: in vivo
Chenopodium album = assay: Postemergent weed control, greenhouse (Example I)
Procedure: (§1) In all Examples, the percent kill and control is measured on a scale of 0 percent = no kill and control 100 percent = complete kill and control. Representative compositions of the present invention were evaluated to determine their effectiveness in synergistic postemergent weed control operations. Suspension emulsions containing varying concentrations of the methylheptyl ester of ((4-amino-3,5-dichloro-6-fluoro-2-pyridinyl)oxy)-acetic acid (Compound B) and N-(2,6-dichloro-3-methylphenyl)-5,7-dimethoxy-1,2,4,-triazolo(1,5a)pyrimidine-2-sulfonamide (Compound A), were prepared as follows: A 250 g per litre suspension concentrate of Compound A was prepared by wet-milling the following ingredients, until a particle size distribution with a volume median diameter of about 2μm was obtained. Varying amounts of the resulting suspension concentrate were added to water to provide the desired concentration of Compound A. Similarly, varying amounts of a commercially available emulsifiable concentrate containing 200 g/l (as acid equivalent) of fluroxypyr 1 methylheptyl ester (Trade Mark […]-2) were added, to provide the desired concentration of Compound B. In each of the tests which follow, the composition was applied at a rate of 200 litres per hectare. Accordingly, in each case, the amount of water to which the suspension concentrate of Compound A and the emulsifiable concentrate of Compound B was added was sufficient to provide the desired application rates, when the resulting composition was used at this application rate. Seeds of the weed species Bilderdykia convolvulus, Viola arvensis, Lamium purpureum, Chenopodium album and Fumaria officinalis, and seeds of the crop plant winter wheat variety Avalon, were planted in beds of good agricultural soil and grown in a greenhouse. […] The results are shown in Tables I to V. In the tables which follow, those runs which include only one but not both of Compound A and Compound B are included as controls. Expected control is calculated as 100 -((% control by Compound A) x (% control by Compound B))/(100) [formula] where % control= 100-actual control according to the technique described in Colby, "Calculating Synergistic and Antagonistic Responses of Herbicidal Combinations", Weeds, Volume 15 (1967), pages 20-22 and Colby, "Greenhouse Evaluation of Herbicidal Combinations", Proc. NEWCC, No. 19, pages 312-320. The percent increase over the expected control is calculated as (Actual control)/(Expected Control)x 100 - 100 [formula]

Viola arvensis [1] = assay: Postemergent weed control, greenhouse (Example I)
Procedure: as §1

Lamium purpureum [2] = assay: Postemergent weed control, greenhouse (Example I)
Procedure: as §1

Fumaria officinalis [3] = assay: Postemergent weed control, greenhouse (Example I)
Procedure: as §1

Bilderdykia convolvulus = assay: Postemergent weed control, greenhouse (Example I)
Procedure: as §1

Viola arvensis [4] = assay: Post-emergent weed control by reduction in fresh weight (Examples V, VI and VII)
Procedure: (§2) In all Examples, the percent kill and control is measured on a scale of 0 percent = no kill and control 100 percent = complete kill and control. Expected control is calculated as 100 -((% control by Compound A) x (% control by Compound B))/(100) [formula] where % control= 100-actual control according to the technique described in Colby, "Calculating Synergistic and Antagonistic Responses of Herbicidal Combinations", Weeds, Volume 15 (1967), pages 20-22 and Colby, "Greenhouse Evaluation of Herbicidal Combinations", Proc. NEWCC, No. 19, pages 312-320. The percent increase over the expected control is calculated as (Actual control)/(Expected Control)x 100 - 100 [formula] Table I A 20% w/w suspension concentrate of fluroxypyr acid in water was prepared by wet milling the ingredients shown in Table XVIII until a particle size distribution with a volume median diameter of about 2µm was obtained. Varying amounts of the resulting suspension concentrate were added to water to provide the desired concentration of fluroxypyr acid. […] Varying amounts of the resulting solutions were further diluted with water to provide the desired concentration of the fluroxypyr salt. Similarly, varying amounts of the suspension concentrate of compound A prepared as in Example 1 were added, to provide the desired concentration of compound A. The formulations resulting from Examples V, VI and VII were evaluated to determine their effectiveness in the post-emergent control of the weeds Viola arvensis, Galium aparine, and Matricaria inodora.

Matricaria inodora = assay: as above
Procedure: as §2

Lamium purpureum [5] = assay: Weed control by reduction in fresh weight (Example IV)
Procedure: (§3) In all Examples, the percent kill and control is measured on a scale of 0 percent = no kill and control 100 percent = complete kill and control. Expected control is calculated as 100 -((% control by Compound A) x (% control by Compound B))/(100) [formula] where % control= 100-actual control according to the technique described in Colby, "Calculating Synergistic and Antagonistic Responses of Herbicidal Combinations", Weeds, Volume 15 (1967), pages 20-22 and Colby, "Greenhouse Evaluation of Herbicidal Combinations", Proc. NEWCC, No. 19, pages 312-320. The percent increase over the expected control is calculated as (Actual control)/(Expected Control)x 100 - 100 [formula] Table I An emulsifiable concentrate of fluroxypyr methyl ester (as compound B) was prepared having the following composition. Varying amounts of this emulsifiable concentrate containing 100 g/l Fluroxypyr methyl ester (as acid equivalent) were added to a suspension concentrate of compound A prepared as in Example I, to provide the desired concentration of Compound B. The resulting formulation was tested against the following weeds, at the growth stage indicated, by the method described above. [table] In each case, the composition was applied ata rate of 200 litres per hectare. The percent of control was assessed by visual percent control (tables VIII to XII) and also by measurement of fresh weight (tables XIII to XVII).

Fumaria officinalis [6] = assay: Postemergent weed control, field trials (Example II)
Procedure: In all Examples, the percent kill and control is measured on a scale of 0 percent = no kill and control 100 percent = complete kill and control. Expected control is calculated as 100 -((% control by Compound A) x (% control by Compound B))/(100) [formula] where % control= 100-actual control according to the technique described in Colby, "Calculating Synergistic and Antagonistic Responses of Herbicidal Combinations", Weeds, Volume 15 (1967), pages 20-22 and Colby, "Greenhouse Evaluation of Herbicidal Combinations", Proc. NEWCC, No. 19, pages 312-320. The percent increase over the expected control is calculated as (Actual control)/(Expected Control)x 100 - 100 [formula] Table I A number of compositions in accordance with the present invention were prepared as in Example I and evaluated in field trials to determine their effectiveness in the postemergent control of the weed Fumaria officinalis growing in the presence of spring barley of the variety Triumph. Seeds of the plants spring barley of the variety Triumph and the weed specie Fumaria officinalis were planted in plots 6 meters x 3 meters composed of calcareous clay loam soil. Two months after planting, the plants were sprayed at a rate of 200 litre/hectare with one of the compositions having an active material control such as to give treatment rates shown in Table VI. […]

Veronica persica = assay: Weed control, visual percent control (Example IV)
Procedure: as §3

Viola arvensis [7] = assay: Weed control, visual percent control (Example IV)
Procedure: as §3

Galium aparine = assay: Weed control, visual percent control (Example IV)
Procedure: as §3

For `COc1cc(OC)n2nc(S(=O)(=O)Nc3c(Cl)ccc(C)c3Cl)nc2n1` [Cmpd A, N-(2,6-dichloro-3-methylphenyl)-5,7-dimethoxy-1,2,4,-triazolo(1,5a)pyrimidine-2-sulfonamide], the “Actual Control 19 days after treatment (%)” value (from here on “Actual Control 19 days … (%)”) (Chenopodium album; Cmpd A 3.125 g/ha alone) was 47%, the “Actual Control 19 days … (%)” value (Chenopodium album; Cmpd A 6.25 g/ha alone) was 60% and the “Actual Control 19 days … (%)” value (Chenopodium album; Cmpd A 12.50 g/ha alone) was 55%. For the same molecule, the “Actual Control 19 days … (%)” value (Chenopodium album; Cmpd A 25.00 g/ha alone) was 60%, the “Actual Control (%) 17 days after treatment” value (from here on “Actual Control (%) 17 days”) (Viola arvensis [1]; Cmpd A 6.25 g/ha alone) was 15% and the “Actual Control (%) 17 days” value (Viola arvensis [1]; Cmpd A 12.50 g/ha alone) was 36%. For the same molecule, the “Actual Control (%) 17 days” value (Viola arvensis [1]; Cmpd A 25.00 g/ha alone) was 39%, the “Actual Control (%) 17 days” value (Viola arvensis [1]; Cmpd A 50.00 g/ha alone) was 50% and the “Actual Control (%) 12 days after treatment” value (from here on “Actual Control (%) 12 days”) (Lamium purpureum [2]; Cmpd A 6.25 g/ha alone) was 18%. For the same molecule, the “Actual Control (%) 12 days” value (Lamium purpureum [2]; Cmpd A 12.50 g/ha alone) was 24%, the “Actual Control (%) 12 days” value (Lamium purpureum [2]; Cmpd A 25.00 g/ha alone) was 25% and the “Actual Control (%) 12 days” value (Lamium purpureum [2]; Cmpd A 50.00 g/ha alone) was 23%. For the same molecule, the “Actual Control 19 days … (%)” value (Fumaria officinalis [3]; Cmpd A 3.125 g/ha alone) was 5%, the “Actual Control 19 days … (%)” value (Fumaria officinalis [3]; Cmpd A 6.25 g/ha alone) was 18% and the “Actual Control 19 days … (%)” value (Fumaria officinalis [3]; Cmpd A 12.50 g/ha alone) was 0%. The “Actual Control 19 days … (%)” value (Fumaria officinalis [3]; Cmpd A 25.00 g/ha alone) was 18%, the “Actual Control (%) 32 days after treatment” value (from here on “Actual Control (%) 32 days”) (Bilderdykia convolvulus; Cmpd A 6.25 g/ha alone) was 0% and the “Actual Control (%) 32 days” value (Bilderdykia convolvulus; Cmpd A 12.50 g/ha alone) was 45%. For the same molecule, the “Actual Control (%) 32 days” value (Bilderdykia convolvulus; Cmpd A 25.00 g/ha alone) was 30%, the “Actual Control (%) 32 days” value (Bilderdykia convolvulus; Cmpd A 50.00 g/ha alone) was 53% and the “Actual Control (%) 23 days after treatment” value (from here on “Actual Control (%) 23 days”) (Viola arvensis [4]; Cmpd A 6.25 g/ha) was 20%. For the same molecule, the “Actual Control (%) 23 days” value (Viola arvensis [4]; Cmpd A 6.25 g/ha, Table XX) was 20%, the “Actual Control (%) 23 days” value (Viola arvensis [4]; Cmpd A 12.50 g/ha) was 50% and the “Actual Control (%) 23 days” value (Viola arvensis [4]; Cmpd A 12.50 g/ha, Table XX) was 50%. For the same molecule, the “Actual Control (%) 23 days” value (Viola arvensis [4]; Cmpd A 25.00 g/ha) was 52%, the “Actual Control (%) 23 days” value (Viola arvensis [4]; Cmpd A 25.00 g/ha, Table XX) was 52% and the “Actual Control (%) 23 days” value (Viola arvensis [4]; Cmpd A 50.00 g/ha) was 60%. For the same molecule, the “Actual Control (%) 23 days” value (Viola arvensis [4]; Cmpd A 50.00 g/ha, Table XX) was 60%, the “Actual Control (%) 17 days” value (Matricaria inodora; Cmpd A 6.25 g/ha) was 7% and the “Actual Control (%) 17 days” value (Matricaria inodora; Cmpd A 12.50 g/ha) was 32%. For the same molecule, the “Actual Control (%) 17 days” value (Matricaria inodora; Cmpd A 25.00 g/ha) was 75%, the “Actual Control (%) 17 days” value (Matricaria inodora; Cmpd A 50.00 g/ha) was 72% and the “Actual Reduction (%) 19 days after treatment” value (from here on “Actual Reduction (%) 19 days”) (Lamium purpureum [5]; Cmpd A 3.125 g/ha) was 4%. For the same molecule, the “Actual Reduction (%) 19 days” value (Lamium purpureum [5]; Cmpd A 6.25 g/ha) was 0%, the “Actual Reduction (%) 19 days” value (Lamium purpureum [5]; Cmpd A 12.5 g/ha) was 19% and the “Actual Reduction (%) 19 days” value (Lamium purpureum [5]; Cmpd A 25.0 g/ha) was 11%. For the same molecule, the “Actual Control 28 days after treatment (%)” value (Fumaria officinalis [6]; Cmpd A 10.0 g/ha alone) was 0.0%, the “Actual Control 28 days after treatment (%)” value (Fumaria officinalis [6]; Cmpd A 20.0 g/ha alone) was 15.0% and the “Actual Control (%) 19 days after treatment” value (“Actual Control (%) 19 days” below) (Veronica persica; Cmpd A 3.125 g/ha alone) was 10%. The “Actual Control (%) 19 days” value (Veronica persica; Cmpd A 6.25 g/ha alone) was 20%, the “Actual Control (%) 19 days” value (Veronica persica; Cmpd A 12.5 g/ha alone) was 28% and the “Actual Control (%) 19 days” value (Veronica persica; Cmpd A 25.0 g/ha alone) was 30%. For the same molecule, the “Actual Control (%) 19 days” value (Viola arvensis [7]; Cmpd A 3.125 g/ha alone) was 22%, the “Actual Control (%) 19 days” value (Viola arvensis [7]; Cmpd A 6.25 g/ha alone) was 12% and the “Actual Control (%) 19 days” value (Viola arvensis [7]; Cmpd A 12.5 g/ha alone) was 55%. For the same molecule, the “Actual Control (%) 19 days” value (Viola arvensis [7]; Cmpd A 25.0 g/ha alone) was 72%, the “Actual Control (%) 19 days” value (Galium aparine; Cmpd A 3.125 g/ha alone) was 0% and the “Actual Control (%) 19 days” value (Galium aparine; Cmpd A 6.25 g/ha alone) was 0%. The “Actual Control (%) 19 days” value (Galium aparine; Cmpd A 12.5 g/ha alone) was 0% and the “Actual Control (%) 19 days” value (Galium aparine; Cmpd A 25.0 g/ha alone) was 0%.
